Test results: the CheMixHub ionic liquid set

Assay: xn = mol fraction of the nth substance listed

CCCCCCCC[n+]1ccc2ccccc2c1.O=S(=O)([N-]S(=O)(=O)C(F)(F)F)C(F)(F)F + CCCCO
101 kPa
Details	viscosity [mPa·s]
298.15 K, x2 = 0.3134	122.9
298.15 K, x2 = 0.5032	55.19
308.15 K, x2 = 0.3134	71.3
308.15 K, x2 = 0.6915	15.21
318.15 K, x2 = 0.7937	6.33
328.15 K, x2 = 0.1708	45.14
338.15 K, x2 = 0.3134	21.01
338.15 K, x2 = 0.6915	5.91
338.15 K, x2 = 0.7937	3.66

CC[n+]1ccn(C)c1.O=S(=O)([O-])C(F)(F)F + CC1COC(=O)O1
101 kPa
Details	viscosity [mPa·s]
288.15 K, x1 = 0.3005	10.78
288.15 K, x1 = 0.3998	14.62
288.15 K, x1 = 0.5001	18.7
293.15 K, x1 = 0.0999	5.28
293.15 K, x1 = 0.8004	32.5
298.15 K, x1 = 0.8004	27.2
298.15 K, x1 = 0.8998	32.5
298.15 K, x1 = 1	40.4
303.15 K, x1 = 0.0999	3.91
303.15 K, x1 = 0.3998	8.9
303.15 K, x1 = 0.6987	18.4
303.15 K, x1 = 1	34
308.15 K, x1 = 0.5001	9.9
313.15 K, x1 = 0.8998	20.4
313.15 K, x1 = 1	24.9
318.15 K, x1 = 0.1999	3.52
318.15 K, x1 = 0.3005	4.44
318.15 K, x1 = 0.3998	5.86
318.15 K, x1 = 0.5001	7.69
318.15 K, x1 = 0.8998	17.7
323.15 K, x1 = 0.6987	10.72
323.15 K, x1 = 0.8998	15.47
328.15 K, x1 = 0.1999	2.81
328.15 K, x1 = 0.3005	3.48
328.15 K, x1 = 0.3998	4.58
328.15 K, x1 = 0.5001	6.16
328.15 K, x1 = 0.601	7.77
333.15 K, x1 = 0.3005	3.14
333.15 K, x1 = 0.6987	8.51
333.15 K, x1 = 0.8004	10.43
338.15 K, x1 = 0.601	6.33
338.15 K, x1 = 0.8004	9.21
343.15 K, x1 = 0.0999	1.74
343.15 K, x1 = 0.3998	3.35
353.15 K, x1 = 0.3005	2.29
353.15 K, x1 = 0.8998	8.38
353.15 K, x1 = 1	9.49

CC[n+]1ccn(C)c1.O=S(=O)([O-])C(F)(F)F + [I-].[Li+]
101 kPa, x1 = 1
Details	electrical conductivity [S/m]
288.15 K	0.605
298.15 K	0.859
333.15 K	2.24

CCC[N+]1(C)CCCCC1.O=S(=O)([N-]S(=O)(=O)C(F)(F)F)C(F)(F)F + CCC[N+](C)(C)C.O=S(=O)([N-]S(=O)(=O)C(F)(F)F)C(F)(F)F
101.3 kPa, x2 = 0
Details	viscosity [mPa·s]
293.15 K	199
298.15 K	147
303.15 K	112
313.15 K	69
338.15 K	26.6
343.15 K	22.9

CC[n+]1ccn(C)c1.O=S(=O)([O-])C(F)(F)F + CN(C)C=O
100 kPa
Details	viscosity [mPa·s]
298.15 K, x2 = 0.1933	28.54
303.15 K, x2 = 0.406	12.55
308.15 K, x2 = 0.406	10.91
313.15 K, x2 = 0.5976	4.5
313.15 K, x2 = 0.7981	2.03
318.15 K, x2 = 0.0917	19.61
318.15 K, x2 = 0.1933	15.46
318.15 K, x2 = 0.2995	11.68
318.15 K, x2 = 0.6947	2.6
323.15 K, x2 = 0.6947	2.42

N[C@@H](CO)C(=O)O + CCCC[n+]1ccn(C)c1.[Br-] + O
viscosity [mPa·s], 101.3 kPa
Details	x1 = 0.0003603, x2 = 0	x1 = 0.0007203, x2 = 0	x1 = 0.001078, x2 = 0	x1 = 0.00144, x2 = 0	x1 = 0.001781, x2 = 0	x1 = 0.002158, x2 = 0	x1 = 0.002516, x2 = 0
293.15 K	1.007	1.012	1.018	1.023	1.028	1.033	1.039
298.15 K	0.897	0.902	0.907	0.911	0.916	0.92	0.925
303.15 K	0.804	0.809	0.813	0.818	0.822	0.827	0.831
308.15 K	0.727	0.73	0.735	0.739	0.744	0.748	0.753
313.15 K	0.661	0.664	0.668	0.673	0.677	0.682	0.686

C=C[n+]1ccn(CCCC)c1.N[C@@H](CO)C(=O)[O-] + O
101.3 kPa
Details	electrical conductivity [S/m]	viscosity [mPa·s]
293.15 K, x1 = 0.3	–	17
303.15 K, x1 = 0.1	1.37	6
303.15 K, x1 = 0.9	–	1832
323.15 K, x1 = 1	0.017	4800
333.15 K, x1 = 0.5	–	38.96
343.15 K, x1 = 1	–	1737
353.15 K, x1 = 0.1	–	4.35
353.15 K, x1 = 0.5	–	35.95
353.15 K, x1 = 1	–	1154

CCCCCCCC[n+]1ccc2ccccc2c1.O=S(=O)([N-]S(=O)(=O)C(F)(F)F)C(F)(F)F + c1ccccc1
101 kPa
Details	viscosity [mPa·s]
298.15 K, x2 = 0	369
298.15 K, x2 = 0.4679	67
298.15 K, x2 = 0.673	10.93
298.15 K, x2 = 0.7443	5.93
308.15 K, x2 = 0.4679	40.99
318.15 K, x2 = 0	108.7
318.15 K, x2 = 0.332	47.7
318.15 K, x2 = 0.5663	16.93
328.15 K, x2 = 0.1505	50.4
328.15 K, x2 = 0.332	31.8
328.15 K, x2 = 0.673	4.75
338.15 K, x2 = 0.673	3.83
338.15 K, x2 = 0.8143	1.48
348.15 K, x2 = 0.332	16.29
348.15 K, x2 = 0.654	4.92
348.15 K, x2 = 0.8961	0.49
